Reference: patent US9091700B2, “Modified peptide substrate” (McMaster University, priority 2005, dated 2015)

Experiments:
Type in all cases: biochemical
human alpha thrombin = target: T1, human alpha thrombin (Homo sapiens, UniProt P00734); test: Reaction of thrombin with S2238 SEPHAROSE beads or free S2238, absorbance at 405 nm of supernatant; details: + thrombin + TSP buffer; 100 nM thrombin, 23° C.
T1 construct: 100 nM human alpha thrombin (Enzyme Research Laboratories); purchased Enzyme Research Laboratories
Procedure: 0.5 mL of resuspended S2238 SEPHAROSE™ beads was placed in each of 2 microfuge tubes (1.5 mL capacity), followed by centrifugation at 12000 g for 1 minute and removal of the resultant supernatant. Beads in each tube were resuspended in 0.5 mL of 0.02 M Tris-HCl 0.15 M NaCl 0.6% polyethylene glycol 8000 pH 7.4 (TSP), centrifuged for 1 minute and the resultant supernatant discarded. A solution of 100 nM human alpha thrombin (Enzyme Research Laboratories) in TSP was prepared. 0.5 mL of thrombin was added to one tube of packed S2238 SEPHAROSE™ beads (tube 1) and 0.5 mL of TSP was added to the other tube of S2238-SEPHAROSE™ beads (tube 2). In a separate empty tube, 0.05 mL of free (not conjugated to beads) S2238 stock solution (12.5 mg of S2238/mL of H2O)+0.15 mL of TSP+0.5 mL of 100 nM thrombin were added (tube 3). Finally, in a separate empty tube, 0.05 mL of free S2238 stock solution+0.65 mL of TSP were added (tube 4). All of the tubes were capped and tubes+contents were gently shaken by inversion manually for 10 min at 23° C. Following inversion mixing, tubes were centrifuged at 12000 g for 1 min and 0.2 mL of supernatant fluid from each tube quickly removed to separate wells of a 96-well microtitre plate and the absorbance at 405 nm measured.

thrombin-A2M [1] = target: T2, thrombin-A2M (Homo sapiens, UniProt P00734); test: Further comparison of reactivities (Example 3), change in absorbance; details: reactant thrombin-A2M
T2 construct: 0.2 mg thrombin (Enzyme Research Laboratories, South Bend, 1N, USA)/mL HBS; purchased Enzyme Research Laboratories (thrombin); Sigma (A2M)
Procedure: (§1) Thrombin and thrombin-A2M were added to samples of S2238 and S2238-Agarose.

thrombin [2] = target: T3, thrombin (Homo sapiens, UniProt P00734); test: as above; details: reactant Thrombin
T3 construct: 0.2 mg thrombin (Enzyme Research Laboratories, South Bend, 1N, USA)/mL HBS; purchased Enzyme Research Laboratories
Procedure: as §1

thrombin-A2M [3] = target: T2, thrombin-A2M; test: Plasma thrombin generation, free thrombin neutralized by antithrombin+heparin before substrate; details: plasma samples with thrombin-A2M only (free thrombin neutralized by antithrombin+heparin); FIG. 5
Procedure: Plasma is taken and the fibrinogen removed by reaction with ancrod enzyme to form a fibrin clot that is wound out to give the resultant defibrinated plasma. At time zero, tissue factor (Thromborel S)+CaCl2 are added to start thrombin generation in the pre-warmed defibrinated plasma. At certain time points, subsamples from the reaction mixture are taken into Na2EDTA to stop further thrombin generation by chelating the Ca^2+. Thrombin activity in the time sample (containing both free thrombin and thrombin bound to alpha-2-macroglobulin (A2M)) was then detected by mixing with either free S2238 substrate in buffer or sterically hindered S2238 substrate (S2238-Agarose beads) suspended in buffer. […]
12 mm (ID)×75 mm (L) polycarbonate plastic test tubes were used for plasma thrombin generation. • 1. […] Aliquots of 2004 of supernatant from each sample were placed in 96-well plate wells and the absorbance at 405 nm measured.
The experiment described above was repeated, except that at step 4, 25 μL of time sample was added to 5 μL of 50 U antithrombin/mL PBS (7.2 mg antithrombin/mL)+2 μl of 100 U heparin/mL 0.15M NaCl on ice. […] Absorbance detected at 405 nm was essentially due to substrate reaction with thrombin-A2M alone (free thrombin having been neutralized by antithrombin+heparin).

[4] = test system: Total Thrombin (Free Thrombin+Thrombin-A2M); test: Plasma thrombin generation, subsamples detected with free S2238 or S2238-Agarose; details: for Thrombin activity detected (absorbance at 405 nm), in words: plasma samples with free thrombin+thrombin-A2M, FIG. 5
Procedure: Plasma is taken and the fibrinogen removed by reaction with ancrod enzyme to form a fibrin clot that is wound out to give the resultant defibrinated plasma. At time zero, tissue factor (Thromborel S)+CaCl2 are added to start thrombin generation in the pre-warmed defibrinated plasma. At certain time points, subsamples from the reaction mixture are taken into Na2EDTA to stop further thrombin generation by chelating the Ca^2+. Thrombin activity in the time sample (containing both free thrombin and thrombin bound to alpha-2-macroglobulin (A2M)) was then detected by mixing with either free S2238 substrate in buffer or sterically hindered S2238 substrate (S2238-Agarose beads) suspended in buffer. In order to determine the ability of free S2238 or S2238-Agarose to detect thrombin-A2M, a similar experiment to the above method was carried out, except that all free thrombin was inhibited first by mixing with antithrombin+heparin prior to incubation with substrate. […] Thus, early time point samples (i.e. 60 seconds) would contain more free thrombin than thrombin-A2M, while later time point samples (i.e. 300 seconds) would contain much more thrombin-A2M than free thrombin.
12 mm (ID)×75 mm (L) polycarbonate plastic test tubes were used for plasma thrombin generation. • 1. Defibrination of Plasma: • a. 800 μL of Plasma was incubated with 10 μL of 30 U/mL Ancrod stock at 37° C. for 10 minutes. • b. After incubation, fibrin clot that formed was wound out on a plastic rod, leaving supernatant defibrinated plasma. • c. Test tube was placed on ice for 10 minutes. • d. After 10-minute incubation, any further clots were wound out. • e. Defibrinated plasma was stored on ice. • 2. The activator solution (12.5 μL Thromborel S+4.0 μL 1M CaCl2+183.5 μL HBS) was warmed at 37° C. in a tube. In a separate tube, 150 μL of defibrinated plasma was warmed at 37° C. • 3. At t=0, 150 μL of activator solution was mixed with 150 μL of defibrinated plasma, at 37° C. • 4. […] Aliquots of […] of supernatant from each sample were placed in 96-well plate wells and the absorbance at 405 nm measured.

A2M = target: T4, A2M (Homo sapiens, UniProt P01023); test: Reaction of soluble S2238 in 96-well plate, change in absorbance at 405 nm over 100 seconds; details: absorbance 405 nm over 100 seconds
T4 construct: purchased Sigma
T4 sequence (P01023 24-1474): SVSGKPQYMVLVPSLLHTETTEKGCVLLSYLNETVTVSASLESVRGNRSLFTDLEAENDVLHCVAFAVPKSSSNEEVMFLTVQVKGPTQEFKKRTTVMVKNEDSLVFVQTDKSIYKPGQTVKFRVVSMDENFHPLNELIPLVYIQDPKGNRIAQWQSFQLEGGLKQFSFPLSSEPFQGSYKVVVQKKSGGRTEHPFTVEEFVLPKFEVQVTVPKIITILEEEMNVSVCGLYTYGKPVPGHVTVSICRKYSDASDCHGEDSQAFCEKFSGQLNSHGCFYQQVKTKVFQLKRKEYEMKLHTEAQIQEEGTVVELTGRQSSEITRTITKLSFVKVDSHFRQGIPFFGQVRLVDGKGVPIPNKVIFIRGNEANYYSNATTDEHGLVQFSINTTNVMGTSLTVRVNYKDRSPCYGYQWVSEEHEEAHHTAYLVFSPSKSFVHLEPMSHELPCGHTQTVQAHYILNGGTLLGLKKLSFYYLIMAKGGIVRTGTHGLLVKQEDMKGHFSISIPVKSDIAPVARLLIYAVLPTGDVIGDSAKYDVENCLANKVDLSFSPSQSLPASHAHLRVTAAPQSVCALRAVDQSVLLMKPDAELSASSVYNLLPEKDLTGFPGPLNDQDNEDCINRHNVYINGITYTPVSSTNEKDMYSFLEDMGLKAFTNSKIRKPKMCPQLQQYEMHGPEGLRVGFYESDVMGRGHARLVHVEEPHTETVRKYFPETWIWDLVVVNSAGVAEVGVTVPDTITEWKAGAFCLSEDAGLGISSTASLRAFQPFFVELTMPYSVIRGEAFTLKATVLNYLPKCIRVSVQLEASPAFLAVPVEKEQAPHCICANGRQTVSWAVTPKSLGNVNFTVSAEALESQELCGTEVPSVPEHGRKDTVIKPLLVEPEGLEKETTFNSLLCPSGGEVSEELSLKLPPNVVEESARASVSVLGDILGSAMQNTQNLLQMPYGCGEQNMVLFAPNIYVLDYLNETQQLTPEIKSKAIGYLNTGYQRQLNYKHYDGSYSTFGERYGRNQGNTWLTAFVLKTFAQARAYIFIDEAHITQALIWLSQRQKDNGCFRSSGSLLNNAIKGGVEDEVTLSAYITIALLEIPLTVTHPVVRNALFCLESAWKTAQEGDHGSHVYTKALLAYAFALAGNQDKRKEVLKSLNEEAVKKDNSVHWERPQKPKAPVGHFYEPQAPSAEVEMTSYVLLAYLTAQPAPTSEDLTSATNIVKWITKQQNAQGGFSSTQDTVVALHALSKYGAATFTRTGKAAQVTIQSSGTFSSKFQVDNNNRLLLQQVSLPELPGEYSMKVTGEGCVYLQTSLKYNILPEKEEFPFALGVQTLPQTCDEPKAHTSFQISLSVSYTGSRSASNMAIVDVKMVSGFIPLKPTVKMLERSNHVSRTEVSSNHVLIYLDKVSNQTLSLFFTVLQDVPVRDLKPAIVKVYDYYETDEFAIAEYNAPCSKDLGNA
Procedure: (§2) A solution of 0.05M HEPES 0.15M NaCl pH 7.5 (HBS) was prepared. Thrombin-A2M was prepared by reaction of 40 μL of 5 mg A2M (Sigma)/mL+40 μL of 0.2 mg thrombin (Enzyme Research Laboratories, South Bend, 1N, USA)/mL HBS for 40 to 60 minutes at 23° C. (solution #1). Solutions of 40 μL of 5 mg A2M/mL+40 μL HBS (solution #2) and 40 μL of 0.2 mg thrombin/mL+40 μL HBS (solution #3) were prepared.
(§3) The following reactions with S2238 were carried out in 96-well plate wells. • 1. 5 μL of solution #1 were added to 10 uL of 0.5 mg antithrombin (purified antithrombin III protein, Affinity Biologicals, Ancaster, Ontario, Canada)/mL HBS+1 μL of 100 U heparin (Leo Laboratories, Ajax, Ontario, Canada)/mL HBS+74 μL HBS. After 10 minutes, 10 μL of 3.192 mg S2238/mL H2O was added with mixing, absorbance readings at 405 nm measured every 10 seconds for 100 seconds and the change in absorbance over that time recorded (AA). • 2. 5 μL of solution #2 were added to 10 uL of 0.5 mg antithrombin/mL HBS+1 μL of 100 U heparin/mL HBS+74 μL HBS. After 10 minutes, 10 μL of 3.192 mg S2238/mL H2O was added with mixing, absorbance readings at 405 nm measured every 10 seconds for 100 seconds and the change in absorbance over that time recorded (AA). • 3. 5 μL of solution #3 were added to 10 uL of 0.5 mg antithrombin/mL HBS+1 μL of 100 U heparin/mL HBS+74 μL HBS. After 10 minutes, 10 μL of 3.192 mg S2238/mL H2O was added with mixing, absorbance readings at 405 nm measured every 10 seconds for 100 seconds and the change in absorbance over that time recorded (AA). • 4. 5 μL of solution #1 were added to 85 uL of HBS. After 10 minutes, 10 μL of 3.192 mg S2238/mL H2O was added with mixing, absorbance readings at 405 nm measured every 10 seconds for 100 seconds and the change in absorbance over that time recorded (AA). • 5. 5 μL of solution #2 were added to 85 uL of HBS. After 10 minutes, 10 μL of 3.192 mg S2238/mL H2O was added with mixing, absorbance readings at 405 nm measured every 10 seconds for 100 seconds and the change in absorbance over that time recorded (AA). • 6. 5 μL of solution #3 were added to 85 uL of HBS. After 10 minutes, 10 μL of 3.192 mg S2238/mL H2O was added with mixing, absorbance readings at 405 nm measured every 10 seconds for 100 seconds and the change in absorbance over that time recorded (LA).

thrombin-A2M [5] = target: T2, thrombin-A2M; test: as above; details: for ΔA: absorbance 405 nm over 100 seconds
Procedure: as §2, §3

thrombin [6] = target: T3, thrombin; test: as above; details: for ΔA: absorbance 405 nm over 100 seconds
Procedure: as §2, §3

With H-D-Phe-Pip-Arg-pNA [S2238] the “Absorbance at 405 nm of supernatant after 10 minutes incubation and 1 minute centrifugation” value (human alpha thrombin) was 1.143, the “Thrombin Activity (Δ absorbance/minute)” value (thrombin-A2M [1]) was 0.48 Δ absorbance/minute and the “Thrombin Activity (Δ absorbance/minute)” value (thrombin [2]) was 0.57 Δ absorbance/minute. For the same substance, the “Thrombin activity detected (absorbance at 405 nm), in words” value (from here on “Thrombin activity detected”) (thrombin-A2M [3]) was “significant thrombin activity”, the “Which thrombin species accounts for the detected activity (comparison of samples)” value ([4]; comparison of free thrombin+thrombin-A2M samples with thrombin-A2M only samples, 60 sec or 300 sec) was “the vast majority of soluble S2238 activity is due to thrombin-A2M” and the “Thrombin activity detected” value ([4]; 60 seconds after plasma activation) was “significant activity”. The “Thrombin activity detected” value ([4]; 300 seconds after plasma activation) was “significant thrombin substrate activity”, the ΔA (A2M; A2M + antithrombin + heparin added) was 0 and the ΔA (A2M; A2M added) was 0. The ΔA (thrombin-A2M [5]; Thrombin-A2M added) was 0.8, the “Reaction with thrombin-A2M (in words)” value (thrombin-A2M [5]; summary of Table 1) was “reacts readily” and the ΔA (thrombin-A2M [5]; thrombin-A2M + antithrombin + heparin added) was 0.8. The ΔA (thrombin [6]; Thrombin added) was 0.95, the “Reaction with free thrombin (in words)” value (thrombin [6]; summary of Table 1) was “reacts readily” and the ΔA (thrombin [6]; thrombin + antithrombin + heparin added) was 0.
